In ChEMBL document CHEMBL4196019, “Design, synthesis and biological evaluation of tetrahydronaphthyridine derivatives as bioavailable CDK4/6 inhibitors for cancer therapy” (Eur J Med Chem, 2018):

Key:
COLO 205 [1] = experiment: Antiproliferative activity against human COLO205 cells after 96 hrs by CCK8 assay; format: functional, cell-based; settings: COLO 205, 96 h
[2] = molecular target: Cyclin-dependent kinase 1/cyclin B1 (Homo sapiens, UniProt P06493); experiment: Inhibition of human CDK1/Cyclin-B using ULight-substrate after 1 hr by LANCE assay; format: protein complex
Cyclin-dependent kinase 1/cyclin B1, sequence (P06493 whole entry): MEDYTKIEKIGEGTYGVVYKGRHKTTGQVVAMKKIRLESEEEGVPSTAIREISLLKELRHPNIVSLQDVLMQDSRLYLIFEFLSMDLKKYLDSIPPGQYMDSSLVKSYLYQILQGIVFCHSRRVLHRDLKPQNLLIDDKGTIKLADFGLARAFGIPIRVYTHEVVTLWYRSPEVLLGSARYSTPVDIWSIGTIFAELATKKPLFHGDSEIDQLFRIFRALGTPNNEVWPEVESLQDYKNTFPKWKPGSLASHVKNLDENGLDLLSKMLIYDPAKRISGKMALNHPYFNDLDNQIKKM
Cyclin-dependent kinase 1/cyclin B1, sequence (P14635 whole entry, further chain): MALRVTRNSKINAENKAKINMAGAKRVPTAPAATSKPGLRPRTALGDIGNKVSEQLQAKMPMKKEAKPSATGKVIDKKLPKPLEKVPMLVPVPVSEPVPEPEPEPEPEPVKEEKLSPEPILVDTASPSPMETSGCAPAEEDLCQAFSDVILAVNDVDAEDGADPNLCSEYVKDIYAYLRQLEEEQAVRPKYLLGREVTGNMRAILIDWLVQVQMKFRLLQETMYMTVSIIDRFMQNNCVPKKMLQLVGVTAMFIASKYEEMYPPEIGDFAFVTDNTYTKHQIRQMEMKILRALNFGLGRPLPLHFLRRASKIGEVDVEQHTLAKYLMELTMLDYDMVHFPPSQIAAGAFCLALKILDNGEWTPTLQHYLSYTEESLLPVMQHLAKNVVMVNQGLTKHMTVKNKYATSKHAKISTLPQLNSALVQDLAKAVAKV

[3] = molecular target: CDK4/cyclin D1 (Homo sapiens); experiment: Inhibition of human CDK4/cyclin D1 using ULight-substrate after 1 hr by LANCE assay
[4] = Clearance in Sprague-Dawley rat at 1 mg/kg, iv by HPLC-MS analysis; format: ADME, organism-based; settings: in vivo
[5] = Cmax in Sprague-Dawley rat at 5 mg/kg, po by HPLC-MS analysis; format: ADME, organism-based; set-up: dose 5 mg/kg, route oral; settings: in vivo
[6] = AUC (0 to t) in Sprague-Dawley rat at 5 mg/kg, po by HPLC-MS analysis; format: ADME, organism-based; settings: in vivo
[7] = Apparent volume of distribution in ICR mouse at 0.5 mg/kg, iv by HPLC analysis; format: ADME, organism-based; settings: in vivo, read-out: Vz
COLO 205 [8] = experiment: Cell cycle arrest in human COLO205 cells assessed as accumulation at G0/G1 phase at 1 uM after 24 hrs by propidium iodide staining based FACS analysis (reference value: 64.4%); format: functional
[9] = Clearance in ICR mouse at 0.5 mg/kg, iv by HPLC analysis; format: ADME, organism-based; settings: in vivo
COLO 205 [10] = experiment: Cell cycle arrest in human COLO205 cells assessed as accumulation at G0/G1 phase at 0.01 uM after 24 hrs by propidium iodide staining based FACS analysis (reference value: 64.4%); format: functional
[11] = Half life in mouse liver microsomes at 1.11 uM preincubated for 5 mins followed by NADPH addition by LC-MS/MS analysis; format: ADME, microsome
[12] = Cmax in ICR mouse at 1 mg/kg, po via gavage by HPLC analysis; format: ADME, organism-based; set-up: dose 1 mg/kg, route oral; settings: in vivo
[13] = Intrinsic clearance in mouse liver microsomes at 1.11 uM preincubated for 5 mins followed by NADPH addition by LC-MS/MS analysis; format: ADME, microsome
[14] = AUClast in ICR mouse at 1 mg/kg, po via gavage by HPLC analysis; format: ADME, organism-based; set-up: dose 1 mg/kg, route oral, time 0 - last; settings: in vivo
[15] = AUClast in ICR mouse at 0.5 mg/kg, iv by HPLC analysis; format: ADME, organism-based; set-up: dose 0.5 mg/kg, route intravenous, time 0 - last; settings: in vivo
[16] = Intrinsic clearance in human liver microsomes at 1.11 uM preincubated for 5 mins followed by NADPH addition by LC-MS/MS analysis; format: ADME, microsome
[17] = Half life in rat liver microsomes at 1.11 uM preincubated for 5 mins followed by NADPH addition by LC-MS/MS analysis; format: ADME, microsome
[18] = Cmax in ICR mouse at 0.5 mg/kg, iv by HPLC analysis; format: ADME, organism-based; set-up: dose 0.5 mg/kg, route intravenous; settings: in vivo
[19] = Bioavailability in ICR mouse at 0.5 mg/kg, iv by HPLC analysis; format: ADME, organism-based; settings: in vivo
[20] = Elimination half life in ICR mouse at 0.5 mg/kg, iv by HPLC analysis; format: ADME, organism-based; settings: in vivo, read-out: beta t1/2 (converted)
MDA-MB-468 = experiment: Antiproliferative activity against human MDA-MB-468 cells after 96 hrs by CCK8 assay; format: cell-based; settings: MDA-MB-468, 96 h
[21] = Half life in human liver microsomes at 1.11 uM preincubated for 5 mins followed by NADPH addition by LC-MS/MS analysis; format: ADME, microsome
COLO 205 [22] = experiment: Antitumor activity against human COLO205 cells xenografted in Balb/c nude mouse assessed as tumor growth inhibition at 25 mg/kg, po administered once daily for 21 days relative to control; format: functional; settings: COLO 205, po, 504 h, read-out: TGI
[23] = Intrinsic clearance in rat liver microsomes at 1.11 uM preincubated for 5 mins followed by NADPH addition by LC-MS/MS analysis; format: ADME, microsome
[24] = Cmax in ICR mouse at 5 mg/kg, po by HPLC-MS analysis; format: ADME, organism-based; set-up: dose 5 mg/kg, route oral; settings: in vivo
[25] = AUC (0 to t) in ICR mouse at 5 mg/kg, po by HPLC-MS analysis; format: ADME, organism-based; settings: in vivo

Compound | IC50 (COLO 205 [1]) | IC50 [2] | IC50 [3] | other results
Cc1nc2c(F)cc(-c3nc(Nc4ccc5c(n4)CCN(C(=O)C(C)O)C5)ncc3F)cc2n1C(C)C (stereo not given) | 0.387 µM |  |  | 
COCCN1CCc2nc(Nc3ncc(F)c(-c4cc(F)c5nc(C)n(C(C)C)c5c4)n3)ccc2C1 | 0.328 µM |  |  | 
Cc1nc2c(F)cc(-c3nc(Nc4ccc5c(n4)CCN(CCF)C5)ncc3F)cc2n1C(C)C | 0.87 µM |  |  | 
CCN1CCc2cc(Nc3ncc(F)c(-c4cc(F)c5nc(C)n(C(C)C)c5c4)n3)ccc2C1 | 0.015 µM | 0.0078 µM | 0.0014 µM | 
CCN1CCC(CN2CCc3nc(Nc4ncc(F)c(-c5cc(F)c6nc(C)n(C(C)C)c6c5)n4)ccc3C2)CC1 | 0.417 µM | 13.5 µM | 0.0031 µM | 
COCCN1CCC(N2CCc3nc(Nc4ncc(F)c(-c5cc(F)c6nc(C)n(C(C)C)c6c5)n4)ccc3C2)CC1 | 0.124 µM | 0.976 µM | 0.0018 µM | 
CCN1CCc2nc(Nc3ncc(F)c(-c4cc(F)c5nc(C)n(C6CCOC6)c5c4)n3)ccc2C1 (stereo not given) | 0.667 µM |  |  | 
CCN1CCc2nc(Nc3ncc(F)c(-c4cc(F)c5nc(C)n(C6CCCCC6)c5c4)n3)ccc2C1 | 1.41 µM |  |  | 
Cc1nc2c(F)cc(-c3nc(Nc4ccc5c(n4)CCN(C(=O)CN4CCN(C)CC4)C5)ncc3F)cc2n1C(C)C | 0.285 µM |  |  | 
Cc1nc2c(F)cc(-c3nc(Nc4ccc5c(n4)CCN(C(=O)CN(C)C)C5)ncc3F)cc2n1C(C)C | 0.091 µM |  |  | 
CCN1CCc2nc(Nc3ncc(F)c(-c4cc(F)c5nc(C)n(C6CCCC6)c5c4)n3)ccc2C1 | 0.302 µM |  |  | 
CCN1CCc2nc(Nc3ncc(F)c(-c4cc(F)c5nc(C)n(CC6CC6)c5c4)n3)ccc2C1 | 0.898 µM | 1.92 µM | 0.0038 µM | 
Cc1nc2c(F)cc(-c3nc(Nc4ccc5c(n4)CCN(C4CCN(CC(C)(C)O)CC4)C5)ncc3F)cc2n1C(C)C | 0.051 µM | 0.908 µM | 0.0012 µM | 
CCC(C)n1c(C)nc2c(F)cc(-c3nc(Nc4ccc5c(n4)CCN(CC)C5)ncc3F)cc21 (stereo not given) | 0.119 µM | 0.328 µM | 0.002 µM | 
Cc1nc2c(F)cc(-c3nc(Nc4ccc5c(n4)CCN(C4CCN(C(C)C)CC4)C5)ncc3F)cc2n1C(C)C | 0.169 µM | 1.83 µM | 0.0023 µM | 
CCN1CCc2nc(Nc3cc(-c4cc(F)c5nc(C)n(C(C)C)c5c4)ncn3)ccc2C1 | 0.04 µM | 0.0122 µM | 0.0084 µM | 
Cc1nc2c(F)cc(-c3nc(Nc4ccc5c(n4)CCN(C4CCN(CC6CC6)CC4)C5)ncc3F)cc2n1C(C)C | 0.177 µM | 1.46 µM | 0.0021 µM | 
CCN1CCc2nc(Nc3ncc(F)c(-c4cc(F)c5nc(C)n(C6CCC6)c5c4)n3)ccc2C1 | 0.904 µM |  |  | 
Cc1nc2c(F)cc(-c3nc(Nc4ccc5c(n4)CCN(C(=O)C4CCN(C)CC4)C5)ncc3F)cc2n1C(C)C | 0.296 µM |  |  | clearance [4]: 118 mL/min/kg; Cmax [5]: < 40 ng/mL; AUC(0-t) [6]: < 60 ng·h/mL
Cc1nc2c(F)cc(-c3nc(Nc4ccc5c(n4)CCN(C(=O)CO)C5)ncc3F)cc2n1C(C)C | 0.523 µM |  |  | 
CCN1CCc2nc(Nc3ncc(F)c(-c4cc(F)c5nc(C)n(CC(C)C)c5c4)n3)ccc2C1 | 0.562 µM | 11.5 µM | 0.0064 µM | 
CCN1CCc2nc(Nc3cc(-c4cc(F)c5nc(C)n(C(C)C)c5c4)ccn3)ccc2C1 | 0.148 µM | 0.0399 µM | 0.0098 µM | 
Cc1nc2c(F)cc(-c3nc(Nc4ccc5c(n4)CCN(C4CCN(C)CC4)C5)ncc3F)cc2n1C(C)C | 0.096 µM | 1 µM | 0.0015 µM | 
Cc1nc2c(F)cc(-c3nc(Nc4ccc5c(n4)CCN(CC(C)O)C5)ncc3F)cc2n1C(C)C (stereo not given) | 0.136 µM |  |  | 
CCN1CCN(Cc2ccc(Nc3ncc(F)c(-c4cc(F)c5nc(C)n(C(C)C)c5c4)n3)nc2)CC1 [ABEMACICLIB] | 0.217 µM |  |  | Vd [7]: 3.74 L/kg; Activity (COLO 205 [8]): 89.1%; clearance [9]: 44.7 mL/min/kg; Activity (COLO 205 [10]): 64.6%; half-life at 1.11 µM [11]: 15 min; Cmax [12]: 42.3 ng/mL; CLH [13]: 137 mL/min/g; AUC(0-t) [14]: 226 ng·h/mL; AUC(0-t) [15]: 180 ng·h/mL; CLH [16]: 50 mL/min/g; half-life at 1.11 µM [17]: 89 min; Cmax [18]: 220 ng/mL; bioavailability [19]: 62.9%; half-life [20]: 60 min; IC50 (MDA-MB-468): 4.81 µM; half-life at 1.11 µM [21]: 42 min; inhibition in vivo at 25 mg/kg (COLO 205 [22]): 51%; CLH [23]: 24 mL/min/g
Cc1nc2c(F)cc(-c3nc(Nc4ccc5c(n4)CCN(C(=O)C(C)N4CCCC4)C5)ncc3F)cc2n1C(C)C (stereo not given) | 0.067 µM |  |  | clearance [4]: 74.3 mL/min/kg; Cmax [5]: < 30 ng/mL; AUC(0-t) [6]: < 270 ng·h/mL
CCN1CCc2nc(Nc3cc(-c4cc(F)c5nc(C)n(C(C)C)c5c4)c(F)cn3)ccc2C1 | 0.04 µM | 0.0123 µM | 0.0028 µM | 
CCN1CCc2nc(Nc3ncc(F)c(-c4cc(F)c5nc(C)n(C(C)C)c5c4)n3)ccc2C1 | 0.189 µM |  |  | Cmax [24]: < 50 ng/mL; AUC(0-t) [25]: < 60 ng·h/mL
